# In PubChem BioAssay AID1918995 (Molecular Pharmacology Branch, DTP, NCI, 2023):
# pIC50: −log10 of the molar value.
# Tested on: 324938-238-R-J1-PDC complex spheroid growth, % test/control
# Assay: Anticancer human tumor 324938-238-R-J1-PDC patient-derived bladder carcinoma cell line growth inhibition [AhR]
# Details: for pIC50: curve of first compound; for viability, T/C: stronger effect = lower value
# Source text: Multicellular complex tumor spheroid response to aryl hydrocarbon receptor antagonists in combination with a variety of drugs and investigational agents in selected tumor cell lines
# The current study was undertaken to assess response to aryl hydrocarbon receptor antagonists in combination with standard-of-care drugs and investigational agents in solid tumor complex spheroid models. Complex spheroids include a stromal component modeled by human endothelial cells (HUVEC) and fibroblasts modeled by human mesenchymal stem cells (MSCs). The concentration ranges selected for each drug and investigational agent were based upon clinically achievable concentrations if the clinical Cmax of the agent was known.
# Compounds. The drugs and investigational agents: BAY 2416964 (NSC825713), GNF351 (NSC835774), CH-223191 (NSC835775), CPI-455 (NSC825282), aza-TdCyd (NSC777586), decitabine (NSC127716), belinostat (NSC758774), entinostat (NSC756642), pevonedistat (NSC761192), tazemetostat (NSC777109), talazoparib (NSC765396), olaparib (NSC753686), selinexor (NSC780203), nedisertib (M3814, NSC802822), bortezomib (NSC756655), venetoclax (NSC766270), doxorubicin (NSC123127), elimusertib (BAY189344, NSC800525), ceralasertib (AZD6738, NSC777638), TAK-243 (NSC785004), alisertib (NSC759677), etoposide (NSC141540), topotecan (NSC609699), eribulin (NSC707389), gemcitabine (NSC613327), carboplatin (NSC241240), cisplatin (NSC119875), and SN-38 (NSC673596) were obtained from the National Cancer Institute (NCI) Developmental Therapeutics Program Chemical Repository (32). The FDA-approved anticancer drug set is available from the Developmental Therapeutics Program at https://dtp.cancer.gov/organization/dscb/obtaining/available plates.htm. […] The stock solutions were prepared in dimethyl sulfoxide (DMSO, Sigma-Aldrich, St. Louis, MO, cat. D2650), except for the platinum compounds which were prepared in saline (Quality Biological, Gaithersburg, MD, cat. 114-055-101), at 800-fold the tested concentration and stored at -70 degrees C prior to their use. All drugs and investigational agents were tested over a range starting from a high concentration at or near the clinical Cmax and decreasing in half-log increments. If the clinical Cmax for an agent had not been determined, the highest concentration tested was 10 microM (Table 1).
# Cell Culture. All cells were maintained in an incubator at 37 degrees C and 5% CO2 with 95% humidity. The PDC lines were cultured according to standard operating procedures established by the NCI PDMR (https://pdmr.cancer.gov). Briefly, all PDCs were thawed and cultured in Matrigel-coated flasks prepared with a working solution of 1X Ham's F-12 nutrient mix, without supplementation (Invitrogen, Waltham, MA, cat. 11765054), 100 U/mL penicillin-streptomycin (Invitrogen, cat. 15140122), and 2.5% Matrigel (Corning Inc., Corning, NY, cat. 354248) for the first three passages. All PDCs were cultured in complete DMEM/F-12 media containing advanced DMEM/F-12 (Invitrogen, cat. 12634028), 4.9% defined fetal bovine serum, heat inactivated (HyClone Laboratories Inc., Logan, UT, cat. SH30070.03HI), 389 ng/mL hydrocortisone (Sigma-Aldrich, cat. H4001), 9.7 ng/mL human EGF recombinant protein (Invitrogen, cat. PHG0313), 23.4 microg/mL adenine (Sigma-Aldrich, cat. A2786), 97.3 U/mL penicillin-streptomycin (Invitrogen, cat. 15140122), 1.9 mM L-glutamine (Invitrogen, cat. 25030081), and 9.7 microM Y-27632 dihydrochloride (Tocris Bioscience, Bristol, United Kingdom, cat. 1254). The PDCs were cultured in complete DMEM/F12 media without 10 microM Y-27632 dihydrochloride for at least two passages prior to the screen. The established cell lines NCI-H1341 and […] were cultured in DMEM/F-12, HEPES (Invitrogen, cat. 11330032), 5% defined fetal bovine serum (HyClone Laboratories Inc., cat. SH30070.03), ITS premix universal culture supplement [insulin (5 microg/mL), transferrin (5 microg/mL), and selenious acid (5 ng/mL)] […]
# [1] = second compound 0.1 µM, first compound 0.0316 µM
# [2] = second compound 0.1 µM, first compound 0.1 µM
# [3] = second compound 0.1 µM, first compound 0.316 µM
# [4] = second compound 0.1 µM, first compound 1 µM
# [5] = second compound 0.1 µM, first compound 3.16 µM
# [6] = second compound 0.1 µM, first compound 10 µM
# [7] = second compound 0.316 µM, first compound 0.0316 µM
# [8] = second compound 0.316 µM, first compound 0.1 µM
# [9] = second compound 0.316 µM, first compound 0.316 µM
# [10] = second compound 0.316 µM, first compound 1 µM
# [11] = second compound 0.316 µM, first compound 3.16 µM
# [12] = second compound 0.316 µM, first compound 10 µM
# [13] = second compound 1 µM, first compound 0.0316 µM
# [14] = second compound 1 µM, first compound 0.1 µM
# [15] = second compound 1 µM, first compound 0.316 µM
# [16] = second compound 1 µM, first compound 1 µM
# [17] = second compound 1 µM, first compound 3.16 µM
# [18] = second compound 1 µM, first compound 10 µM
# [19] = second compound 3.16 µM, first compound 0.0316 µM
# [20] = second compound 3.16 µM, first compound 0.1 µM
# [21] = second compound 3.16 µM, first compound 0.316 µM
# [22] = second compound 3.16 µM, first compound 1 µM
# [23] = second compound 3.16 µM, first compound 3.16 µM
# [24] = second compound 3.16 µM, first compound 10 µM
# [25] = second compound 10 µM, first compound 0.0316 µM
# [26] = second compound 10 µM, first compound 0.1 µM
# [27] = second compound 10 µM, first compound 0.316 µM
# [28] = second compound 10 µM, first compound 1 µM
# [29] = second compound 10 µM, first compound 3.16 µM
# [30] = second compound 10 µM, first compound 10 µM
# 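Note: spheroids exposed to agents for seven days before viability read.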
structure (smiles),measurement,setting,value
CC(C)CC(NC(=O)C(Cc1ccccc1)NC(=O)c1cnccn1)B(O)O (stereo not given) + CC(CO)NC(=O)c1cc(-c2ccc(Cl)cc2)nn(-c2cnn(C)c2)c1=O,pIC50,second compound 0.1 µM,8.75
same,pIC50,second compound 0.316 µM,8.77
same,pIC50,second compound 1 µM,8.76
same,pIC50,second compound 3.16 µM,8.85
same,pIC50,second compound 10 µM,8.86
same,"viability, T/C","second compound 0.1 µM, first compound 0.000949 µM",89%
same,"viability, T/C","second compound 0.1 µM, first compound 0.003 µM",18.1%
same,"viability, T/C","second compound 0.1 µM, first compound 0.00949 µM",0.1%
same,"viability, T/C","second compound 0.1 µM, first compound 0.03 µM",0.06%
same,"viability, T/C","second compound 0.1 µM, first compound 0.0949 µM",0.07%
same,"viability, T/C","second compound 0.1 µM, first compound 0.3 µM",0.21%
same,"viability, T/C","second compound 0.316 µM, first compound 0.000949 µM",85.8%
same,"viability, T/C","second compound 0.316 µM, first compound 0.003 µM",14.3%
same,"viability, T/C","second compound 0.316 µM, first compound 0.00949 µM",0.09%
same,"viability, T/C","second compound 0.316 µM, first compound 0.03 µM",0.06%
same,"viability, T/C","second compound 0.316 µM, first compound 0.0949 µM",0.07%
same,"viability, T/C","second compound 0.316 µM, first compound 0.3 µM",0.16%
same,"viability, T/C","second compound 1 µM, first compound 0.000949 µM",86.2%
same,"viability, T/C","second compound 1 µM, first compound 0.003 µM",18.1%
same,"viability, T/C","second compound 1 µM, first compound 0.00949 µM",0.13%
same,"viability, T/C","second compound 1 µM, first compound 0.03 µM",0.12%
same,"viability, T/C","second compound 1 µM, first compound 0.0949 µM",0.05%
same,"viability, T/C","second compound 1 µM, first compound 0.3 µM",0.17%
same,"viability, T/C","second compound 3.16 µM, first compound 0.000949 µM",69.1%
same,"viability, T/C","second compound 3.16 µM, first compound 0.003 µM",13.6%
same,"viability, T/C","second compound 3.16 µM, first compound 0.00949 µM",0.13%
same,"viability, T/C","second compound 3.16 µM, first compound 0.03 µM",0.07%
same,"viability, T/C","second compound 3.16 µM, first compound 0.0949 µM",0.07%
same,"viability, T/C","second compound 3.16 µM, first compound 0.3 µM",0.17%
same,"viability, T/C","second compound 10 µM, first compound 0.000949 µM",67.1%
same,"viability, T/C","second compound 10 µM, first compound 0.003 µM",14.8%
same,"viability, T/C","second compound 10 µM, first compound 0.00949 µM",0.23%
same,"viability, T/C","second compound 10 µM, first compound 0.03 µM",0.2%
same,"viability, T/C","second compound 10 µM, first compound 0.0949 µM",0.2%
same,"viability, T/C","second compound 10 µM, first compound 0.3 µM",0.32%
Nc1ccccc1NC(=O)c1ccc(CNC(=O)OCc2cccnc2)cc1 + CC(CO)NC(=O)c1cc(-c2ccc(Cl)cc2)nn(-c2cnn(C)c2)c1=O,pIC50,second compound 0.1 µM,5.42
same,pIC50,second compound 0.316 µM,5.60
same,pIC50,second compound 1 µM,5.40
same,pIC50,second compound 3.16 µM,5.49
same,pIC50,second compound 10 µM,5.57
same,"viability, T/C",[1],116%
same,"viability, T/C",[2],122%
same,"viability, T/C",[3],99.1%
same,"viability, T/C",[4],66.3%
same,"viability, T/C",[5],63.9%
same,"viability, T/C",[6],26.3%
same,"viability, T/C",[7],118%
same,"viability, T/C",[8],112%
same,"viability, T/C",[9],95.2%
same,"viability, T/C",[10],61.4%
same,"viability, T/C",[11],52.4%
same,"viability, T/C",[12],26.7%
same,"viability, T/C",[13],99.2%
same,"viability, T/C",[14],109%
same,"viability, T/C",[15],102%
same,"viability, T/C",[16],69.5%
same,"viability, T/C",[17],61.6%
same,"viability, T/C",[18],25.7%
same,"viability, T/C",[19],88%
same,"viability, T/C",[20],90.8%
same,"viability, T/C",[21],84.9%
same,"viability, T/C",[22],63.9%
same,"viability, T/C",[23],56.4%
same,"viability, T/C",[24],7.19%
same,"viability, T/C",[25],82.2%
same,"viability, T/C",[26],90.8%
same,"viability, T/C",[27],80.9%
same,"viability, T/C",[28],63.9%
same,"viability, T/C",[29],50%
same,"viability, T/C",[30],1.83%
O=C(C=Cc1cccc(S(=O)(=O)Nc2ccccc2)c1)NO + CC(CO)NC(=O)c1cc(-c2ccc(Cl)cc2)nn(-c2cnn(C)c2)c1=O,pIC50,second compound 0.1 µM,5.50
same,pIC50,second compound 0.316 µM,5.46
same,pIC50,second compound 1 µM,5.50
same,pIC50,second compound 3.16 µM,5.47
same,pIC50,second compound 10 µM,5.45
same,"viability, T/C",[1],103%
same,"viability, T/C",[2],108%
same,"viability, T/C",[3],96.1%
same,"viability, T/C",[4],67.4%
same,"viability, T/C",[5],56.7%
same,"viability, T/C",[6],3.34%
same,"viability, T/C",[7],94%
same,"viability, T/C",[8],92.7%
same,"viability, T/C",[9],85.4%
same,"viability, T/C",[10],73.5%
same,"viability, T/C",[11],56%
same,"viability, T/C",[12],10.6%
same,"viability, T/C",[13],93.2%
same,"viability, T/C",[14],93.9%
same,"viability, T/C",[15],89.3%
same,"viability, T/C",[16],65%
same,"viability, T/C",[17],55.1%
same,"viability, T/C",[18],6.82%
same,"viability, T/C",[19],74.6%
same,"viability, T/C",[20],83.9%
same,"viability, T/C",[21],77.4%
same,"viability, T/C",[22],67%
same,"viability, T/C",[23],54.4%
same,"viability, T/C",[24],4.74%
same,"viability, T/C",[25],70.6%
same,"viability, T/C",[26],78.8%
same,"viability, T/C",[27],76.9%
same,"viability, T/C",[28],71.6%
same,"viability, T/C",[29],55.4%
same,"viability, T/C",[30],2.36%
